In patent US9296759B2, “Amino-oxazine and amino-dihydrothiazine compounds as beta-secretase modulators and methods of use” (AMGEN INC., priority 2011, dated 2016):
Read-outs that look alike come from different tables or passages of the source.

How the values were obtained:
Cathepsin D = Cathepsin D (Homo sapiens (Human), UniProt P07339); experiment: In vitro enzymatic Cat D (Cathepsin D) FRET assay; type: biochemical; details: average IC50
Outline: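 CHO-expressed recombinant enzyme in 0.05 M citrate pH 3.5, 5 mM CHAPS, 10% DMSO final; reaction started with 20 nM quenched-peptide FRET substrate (cleavage site spanned by fluorophore/quencher), 1 h incubation.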

[1] = molecular target: BACE 1 (beta secretase enzyme) (Homo sapiens (Human), UniProt P56817); experiment: In vitro enzymatic BACE FRET assay; type: biochemical; details: average IC50
Chain of BACE 1 (beta secretase enzyme) (P56817 46-501): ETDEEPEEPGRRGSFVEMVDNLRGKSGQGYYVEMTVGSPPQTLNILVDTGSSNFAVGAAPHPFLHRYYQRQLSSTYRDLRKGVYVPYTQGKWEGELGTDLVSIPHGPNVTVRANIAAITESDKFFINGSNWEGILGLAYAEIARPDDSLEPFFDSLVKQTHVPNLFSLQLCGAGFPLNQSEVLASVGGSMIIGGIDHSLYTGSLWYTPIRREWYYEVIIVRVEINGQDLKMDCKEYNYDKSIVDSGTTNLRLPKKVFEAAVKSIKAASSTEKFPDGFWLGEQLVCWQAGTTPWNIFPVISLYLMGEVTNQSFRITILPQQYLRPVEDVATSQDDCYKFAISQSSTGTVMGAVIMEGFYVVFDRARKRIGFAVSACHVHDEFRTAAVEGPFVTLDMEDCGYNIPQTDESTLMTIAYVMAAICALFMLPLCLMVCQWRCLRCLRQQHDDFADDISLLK
Outline: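 The enzyme was tested in 0.05 M acetate, pH 4.2, with 10% DMSO final and 100 uM genapol. The reaction was started with 50 nM quenched FRET peptide substrate, incubated one hour and stopped with Tris to neutral pH. Cleavage was read as fluorescence ([…]).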

Abeta 40 = experiment: In vivo inhibition of beta-secretase: Abeta 40 reduction in CSF and brain of the rat; details: 10 mpk, after 4 hrs
From the text: In Vivo Inhibition of Beta-Secretase
Several animal models, including mouse, rat, dog, and monkey, may be used to screen for inhibition of beta-secretase activity in vivo following administration of a test compound sample. Animals used in this invention can be wild type, transgenic, or gene knockout animals. For example, the Tg2576 mouse model, prepared and conducted as described in Hsiao et al., 1996, Science 274, 99-102, and other non-transgenic or gene knockout animals are useful to analyze in vivo inhibition of Amyloid beta peptide (Abeta) production in the presence of inhibitory test compounds. Generally, 2 to 18 month old Tg2576 mice, gene knockout mice or non-transgenic animals are administered test compounds formulated in vehicles, such as cyclodextran, phosphate buffers, hydroxypropyl methylcellulose or other suitable vehicles. One to twenty-four hours following the administration of compound, animals are sacrificed, and brains as well as cerebrospinal fluid (CSF) and plasma are removed for analysis of A-beta levels and drug or test compound concentrations (Dovey et al., 2001, Journal of Neurochemistry, 76, 173-181) Beginning at time 0, animals are administered by oral gavage, or other means of delivery such as intravenous injection, an inhibitory test compound of up to 100 mg/kg in a standard, conventional formulation, such as 2% hydroxypropyl methylcellulose, 1% Tween80. A separate group of animals receive 2% hydroxypropyl methylcellulose, 1% Tween80 alone, containing no test compound, and serve as a vehicle-control group. At the end of the test period, animals are sacrificed and brain tissues, plasma or cerebrospinal fluid are collected. Brains are either homogenized in 10 volumes (w/v) of 0.2% diethylamine (DEA) in 50 mM NaCl (Best et al., 2005, Journal of Pharmacology and Experimental Therapeutics, 313, 902-908), or in 10 volumes of 0.5% TritonX-100 in Tris-buffered saline (pH at about 7.6). Homogenates are centrifuged at 355,000 g, 4° C. for 30 minutes. CSF or brain supernatants are then analyzed for the presence of A-beta peptide by specific sandwich ELISA assays based on ECL (Electrochemiluminescence) technology. For example, rat Abeta40 is measured using biotinylated-4G8 (Signet) as a capture antibody and Fab40 (an in-house antibody specific to the C-terminal of Abeta40) as a detection antibody. For example, 4 hours after administration of 30 mg/kg oral dose of the test compound in 2% hydroxypropyl methylcellulose, 1% Tween80 (pH2.2) to 200 g male Sprague Dawley rats, amyloid beta peptide levels are measured for reduction by X % and Y % in cerebrospinal fluid and brain, respectively, when compared to the levels measured in the vehicle-treated rats.
• Oral: 2% HPMC, 1% Tween80, pH 2.2 • IV: 5% EtOH, 45% Propylene glycol in 5% Dextrose
The compounds of the invention may be shown to reduce the formation and/or deposition of amyloid beta peptide in the cerebrospinal fluid (CSF) as well as in the brain of a mouse or rat at either 3 mpk, 10 mpk or 30 mpk (mpk=mg compound per kg weight of the animal) dosing concentrations after 4 hrs.

[2] = tested on: Aβ40 in conditioned medium of cells stably expressing Amyloid Precursor Protein (APP); experiment: In vitro BACE cell-based assay (HEK cell assay, Aβ40 sandwich ELISA); details: Homo sapiens, HEK293; average IC50, Aβ40, 24 h incubation
Outline: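 Aβ40 in supernatants was measured by time-resolved fluorescence sandwich ELISA using pAb40 capture and biotinylated 6E10 detection, with antibody incubations at 4 °C. Stable APP cells were exposed to compounds for 24 h in a 10-point series (top dose 100 or 10 µM, 0.1% DMSO). IC50 was fitted from the concentration-response.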

[3] = Abeta 40, rat CSF, read-out: % reduction of rat CSF levels at 10 pmk
[4] = Abeta 40, rat brain, read-out: % reduction of rat brain levels at 10 mpk

Chain of Cathepsin D (P07339 65-412, species assumed): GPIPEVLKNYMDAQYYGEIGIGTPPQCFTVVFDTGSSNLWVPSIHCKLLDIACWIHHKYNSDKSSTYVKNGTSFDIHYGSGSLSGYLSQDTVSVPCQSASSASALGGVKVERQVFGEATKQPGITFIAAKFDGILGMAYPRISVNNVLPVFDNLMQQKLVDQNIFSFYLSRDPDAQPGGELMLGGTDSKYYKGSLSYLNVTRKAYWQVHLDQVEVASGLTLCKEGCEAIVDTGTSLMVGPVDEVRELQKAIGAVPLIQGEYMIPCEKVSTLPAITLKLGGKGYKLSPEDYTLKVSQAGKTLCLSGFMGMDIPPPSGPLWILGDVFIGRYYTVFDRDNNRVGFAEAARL

SMILES	IC50 (Cathepsin D)	IC50 [1]	inhibition in vivo at 10 mg/kg (Abeta 40; [3])	inhibition in vivo at 10 mg/kg (Abeta 40; [4])	IC50 [2]
COc1cnc(C(=O)Nc2ccc3c(c2)[C@@]2(CCSC(N)=N2)c2cc(C4=CCCOC4)ncc2O3)cn1 [Example 104, N-((5S)-2′-amino-3-(5,6-dihydro-2H-pyran-3-yl)-5′,6′-dihydrospiro[chromeno[2,3-c]pyridine-5,4′-[1,3]thiazin]-7-yl)-5-methoxy-2-pyrazinecarboxamide]	295000 nM	3.1 nM	64%	43%	1 nM
COc1cnc(C(=O)Nc2ccc3c(c2)[C@@]2(CCSC(N)=N2)c2cc(C4=CCOCC4)nc(F)c2O3)cn1 [Example 67, N-((5S)-2′-amino-3-(3,6-dihydro-2H-pyran-4-yl)-1-fluoro-5′,6′-dihydrospiro[chromeno[2,3-c]pyridine-5,4′-[1,3]thiazin]-7-yl)-5-methoxy-2-pyrazinecarboxamide]	160000 nM	1.6 nM	66%	58%	1.4 nM
COc1cnc(C(=O)Nc2ccc3c(c2)[C@@]2(CCSC(N)=N2)c2cc(C4=CCCOC4)nc(F)c2O3)cn1 [Example 66, N-((5S)-2′-amino-3-(5,6-dihydro-2H-pyran-3-yl)-1-fluoro-5′,6′-dihydrospiro[chromeno[2,3-c]pyridine-5,4′-[1,3]thiazin]-7-yl)-5-methoxy-2-pyrazinecarboxamide]	179000 nM	1.8 nM	77%	66%	1 nM
COc1ccc(C(=O)Nc2ccc3c(c2)[C@@]2(CCOC(N)=N2)c2cc(-c4cncc(F)c4)nc(F)c2O3)nc1 [Example 87, N-((5S)-2′-amino-1-fluoro-3-(5-fluoro-3-pyridinyl)-5′,6′-dihydrospiro[chromeno[2,3-c]pyridine-5,4′-[1,3]oxazin]-7-yl)-5-methoxy-2-pyridinecarboxamide]	256000 nM	1.4 nM	75%	53%	0.5 nM
COc1ccc(C(=O)Nc2ccc3c(c2)[C@@]2(CCOC(N)=N2)c2cc(C4=CCOCC4)nc(F)c2O3)nc1 [Example 78, N-((5S)-2′-amino-3-(3,6-dihydro-2H-pyran-4-yl)-1-fluoro-5′,6′-dihydrospiro[chromeno[2,3-c]pyridine-5,4′-[1,3]oxazin]-7-yl)-5-methoxy-2-pyridinecarboxamide]	184000 nM	1.5 nM	77%	70%	0.2 nM
NC1=N[C@@]2(CCO1)c1cc(NC(=O)c3ccc(Cl)cn3)ccc1Oc1c2cc(-c2cncc(F)c2)nc1F [Example 71, N-((5S)-2′-amino-1-fluoro-3-(5-fluoro-3-pyridinyl)-5′,6′-dihydrospiro[chromeno[2,3-c]pyridine-5,4′-[1,3]oxazin]-7-yl)-5-chloro-2-pyridinecarboxamide]	400000 nM	0.6 nM	79%	70%	0.3 nM
COc1cnc(C(=O)Nc2ccc3c(c2)[C@@]2(CCOC(N)=N2)c2cc(-c4ccnc(F)c4)nc(F)c2O3)cn1 [Example 92, N-((5S)-2′-amino-1-fluoro-3-(2-fluoro-4-pyridinyl)-5′,6′-dihydrospiro[chromeno[2,3-c]pyridine-5,4′-[1,3]oxazin]-7-yl)-5-methoxy-2-pyrazinecarboxamide]	400000 nM	1.8 nM	79%	70%	0.9 nM
NC1=N[C@@]2(CCO1)c1cc(NC(=O)c3ccc(Cl)cn3)ccc1Oc1cnc(C3=CCCOC3)cc12 [Example 59, N-((5S)-2′-amino-3-(5,6-dihydro-2H-pyran-3-yl)-5′,6′-dihydrospiro[chromeno[2,3-c]pyridine-5,4′-[1,3]oxazin]-7-yl)-5-chloro-2-pyridinecarboxamide]	400000 nM	3 nM	57%	50%	0.5 nM
NC1=N[C@@]2(CCS1)c1cc(NC(=O)c3ccc(Cl)cn3)ccc1Oc1c2cc(C2=CCCOC2)nc1F [Example 68, N-((5S)-2′-amino-3-(5,6-dihydro-2H-pyran-3-yl)-1-fluoro-5′,6′-dihydrospiro[chromeno[2,3-c]pyridine-5,4′-[1,3]thiazin]-7-yl)-5-chloro-2-pyridinecarboxamide]	217000 nM	0.8 nM	77%	73%	0.5 nM
COc1cnc(C(=O)Nc2ccc3c(c2)[C@@]2(CCOC(N)=N2)c2cc(-c4cncc(F)c4)nc(F)c2O3)cn1 [Example 70, N-((5S)-2′-amino-1-fluoro-3-(5-fluoro-3-pyridinyl)-5′,6′-dihydrospiro[chromeno[2,3-c]pyridine-5,4′-[1,3]oxazin]-7-yl)-5-methoxy-2-pyrazinecarboxamide]	400000 nM	1.3 nM	70%	59%	0.6 nM
NC1=N[C@@]2(CCO1)c1cc(NC(=O)c3ccc(Cl)cn3)ccc1Oc1c2cc(C2=CCOCC2)nc1F [Example 63, N-((5S)-2′-amino-3-(3,6-dihydro-2H-pyran-4-yl)-1-fluoro-5′,6′-dihydrospiro[chromeno[2,3-c]pyridine-5,4′-[1,3]oxazin]-7-yl)-5-chloro-2-pyridinecarboxamide]	400000 nM	1.4 nM	80%	75%	0.1 nM
NC1=N[C@@]2(CCO1)c1cc(NC(=O)c3ccc(F)cn3)ccc1Oc1c2cc(-c2ccnc(F)c2)nc1F [Example 97, N-((5S)-2′-amino-1-fluoro-3-(2-fluoro-4-pyridinyl)-5′,6′-dihydrospiro[chromeno[2,3-c]pyridine-5,4′-[1,3]oxazin]-7-yl)-5-fluoro-2-pyridinecarboxamide]	–	1.2 nM	63%	44%	1.1 nM
COc1cnc(C(=O)Nc2ccc3c(c2)[C@@]2(CCOC(N)=N2)c2cc(-c4ccnc(F)c4)cc(F)c2O3)cn1 [Example 95, N-((4S)-2-amino-5′-fluoro-7′-(2-fluoro-4-pyridinyl)-5,6-dihydrospiro[1,3-oxazine-4,9′-xanthen]-2′-yl)-5-methoxy-2-pyrazinecarboxamide]	–	6.5 nM	54%	21%	5.6 nM
CC(C)(C)C#Cc1cc2c(cn1)Oc1ccc(NC(=O)c3ccc(Cl)cn3)cc1[C@@]21CCOC(N)=N1 [Example 82, N-((5S)-2′-amino-3-(3,3-dimethyl-1-butyn-1-yl)-5′,6′-dihydrospiro[chromeno[2,3-c]pyridine-5,4′-[1,3]oxazin]-7-yl)-5-chloro-2-pyridinecarboxamide]	–	10 nM	67%	42%	1.9 nM
